In patent US6017934A, “Thrombin inhibitors” (Merck & Co., Inc., priority 1998, dated 2000):
Residues, ends and D or L forms follow the SMILES beside them.

Columns and labels:
Type in all cases: biochemical
human a-thrombin [1] = target: T1, human a-thrombin (Homo sapiens, UniProt P00734); test: In vitro thrombin inhibition (Ki); settings: 25° C., 0.05 M TRIS pH 7.4, 0.15 M NaCl, 0.1% PEG; read-out: trombin Ki
Procedure: (§1) Assays of human a-thrombin and human trypsin were performed at 25° C. in 0.05 M TRIS buffer pH 7.4, 0.15 M NaCl, 0.1% PEG. Trypsin assays also contained 1 mM CaCl2.
(§2) Concentrations of stock solutions of Z-GPR-afc were determined from measurements of absorbance at 380 nm of the 7-amino-4-trifluoromethyl coumarin produced upon complete hydrolysis of an aliquot of the stock solution by thrombin.
Times required to achieve equilibration between enzyme and inhibitor were determined in control experiments. Initial velocities of product formation in the absence (Vo) or presence of inhibitor (Vi) were measured. Assuming competitive inhibition, and that unity is negligible compared Km /[S], […] (where [S], [I], and e respectively represent the total concentrations, of substrate, inhibitor and enzyme), the equilibrium constant (Ki) for dissociation of the inhibitor from the enzyme can be obtained from the dependence of Vo /Vi on [I] shown in equation 1.

human a-thrombin [2] = target: T1, human a-thrombin; test: Thrombin catalyzed hydrolysis of fluorogenic substrate; settings: 500 nm (excitation 400 nm)
Procedure: as §1, §2

human trypsin = test: Rate of hydrolysis of p-nitroanilide substrate by trypsin; settings: 405 nm, 1 mM CaCl2
Procedure: as §1

Structure (SMILES) | Ki (human a-thrombin [1]) | also measured
Cc1cc(Sc2ccccc2)c(N)c(=O)n1CC(=O)NCc1cc(Cl)ccc1OCC(=O)NC1CC1 | < 0.01 µM | –
Cc1nc(N)ccc1CNC(=O)Cn1c(C)cc(Sc2ccccc2)c(NS(C)(=O)=O)c1=O | > 0.01 µM | –
N=C(N)NCCC[C@H](NC(=O)[C@@H]1CCCN1C(=O)CNC(=O)OCc1ccccc1)C(=O)Nc1ccc2c(C(F)(F)F)cc(=O)oc2c1 [Z-GPR-afc, Cbz-Gly-Pro-Arg-7-amino-4-trifluoromethylcoumarin] (HELM PEPTIDE1{[O=C(OCc1ccccc1)[*:2]].G.P.R.[O=c1cc(C(F)(F)F)c2ccc(N[*:1])cc2o1]}$$$$V2.0) | – | Km (human a-thrombin [2]): 27 µM
CNCC(=O)N1CCC[C@H]1C(=O)N[C@@H](CCCNC(=N)N)C(=O)Nc1ccc([N+](=O)[O-])cc1 [sar-PR-pna, sarcosine-Pro-Arg-p-nitroanilide] (HELM PEPTIDE1{[Sar].P.R.[O=[N+]([O-])c1ccc(N[*:1])cc1]}$$$$V2.0) | – | Km (human trypsin): 59 µM
